In ChEMBL document CHEMBL1135052, “7-Methoxyfuro[2,3-c]pyridine-4-carboxamides as PDE4 inhibitors: a potential treatment for asthma” (Bioorg Med Chem Lett, 2002):
Calls of active or inactive are those of the source.

How the values were obtained:
[1] = target: T1, Phosphodiesterase 3 (Homo sapiens) (UniProt Q14432+Q13370); assay: Inhibition of human platelet Phosphodiesterase 3 at 20 uM
Phosphodiesterase 4 [2] = target: T2, Phosphodiesterase 4 (Homo sapiens, UniProt P27815+Q08499+Q07343+Q08493); assay: (§1) Inhibition of human phosphodiesterase 4 from U937 cells; type: cell-based; conditions: u-937
[3] = target: T1, Phosphodiesterase 3 (Homo sapiens); assay: Inhibition of human platelet Phosphodiesterase 3 at 1 uM (inactive)
[4] = target: T1, Phosphodiesterase 3 (Homo sapiens); assay: Inhibition of human platelet phosphodiesterase 3 at 1 uM
Phosphodiesterase 4 [5] = target: T2, Phosphodiesterase 4; assay: as §1; type: cell-based; conditions: U-937, concentration not given here
[6] = Bioavailability in guinea pig was tested; type: ADME, organism-based, Cavia porcellus; conditions: in vivo, read-out: Bioavailabiility
[7] = AUC tested in guinea pig when 3 mg/kg dose was given perorally; type: ADME, organism-based, Cavia porcellus, Plasma; set-up: dose 3 mg/kg, route oral; conditions: in vivo, po
[8] = Maximum plsma drug concentration in guinea pig when 3 mg/kg dose was given perorally; type: ADME, organism-based, Cavia porcellus; set-up: dose 3 mg/kg, route oral; conditions: plasma, po
[9] = target: T1, Phosphodiesterase 3 (Homo sapiens); assay: Inhibition of human platelet Phosphodiesterase 3 at 20 uM (inactive)
[10] = target: Phosphodiesterase 4 (Rattus norvegicus) (UniProt P14270+P14646+P14644+P54748); assay: Inhibition of rolipram binding to rat brain at 1 uM; type: tissue-based

| IC50 (Phosphodiesterase 4 [2]) [nM] | Structure (SMILES) | further results |
| --- | --- | --- |
| 47 | COc1ncc(C(=O)Nc2c(Cl)c[n+]([O-])cc2Cl)c2cc(C3CCOCC3)oc12 | inhibition [1]: 3% |
| 23 | COc1ncc(C(=O)Nc2c(Cl)c[n+]([O-])cc2Cl)c2cc(C3CCOC3)oc12 (centres undefined) | – |
| 3.7 | CCc1cc2c(C(=O)Nc3c(Cl)c[n+]([O-])cc3Cl)cnc(OC(F)F)c2o1 | – |
| 14 | CCc1cc2c(C(=O)Nc3c(Cl)c[n+]([O-])cc3Cl)cnc(OC)c2o1 | inhibition [1]: 32%; bioavailability [6]: 54%; AUC [7]: 4942 ng/mL; Cmax [8]: 1410 ng/mL |
| 47 | COCc1cc2c(C(=O)Nc3c(Cl)c[n+]([O-])cc3Cl)cnc(OC)c2o1 | inhibition [9]: inactive |
| 48 | COc1ncc(C(=O)Nc2c(Cl)c[n+]([O-])cc2Cl)c2cc(C3(OC)CCN(C(=O)OC(C)(C)C)CC3)oc12 | inhibition [9]: inactive |
| 62 | COc1ncc(C(=O)Nc2c(Cl)c[n+]([O-])cc2Cl)c2cc(-c3cccnc3)oc12 | – |

Continued, molecule first:

| Structure (SMILES) | IC50 (Phosphodiesterase 4 [2]) [nM] | further results |
| --- | --- | --- |
| CCc1cc2c(C(=O)Nc3ncncc3C#N)cnc(OC)c2o1 | 140 | inhibition [3]: inactive |
| CCc1cc2c(C(=O)Nc3cc[n+]([O-])cc3C)cnc(OC)c2o1 | 120 | – |
| CCc1cc2c(C(=O)Nc3cc[n+]([O-])cc3Cl)cnc(OC)c2o1 | 120 | inhibition [4]: 39% |
| CCc1cc2c(C(=O)Nc3cc[n+]([O-])cc3OC)cnc(OC)c2o1 | – | inhibition (Phosphodiesterase 4 [5]): 21% |
| CCc1cc2c(C(=O)Nc3c(C)cc(C#N)cc3Cl)cnc(OC)c2o1 | 230 | – |
| CCc1cc2c(C(=O)Nc3c(F)cccc3F)cnc(OC)c2o1 | 66 | – |
| CCc1cc2c(C(=O)Nc3c(Cl)c[n+]([O-])cc3Cl)cnc(O)c2o1 | – | inhibition (Phosphodiesterase 4 [5]): 22%; inhibition [10]: 61% |
